#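 Assay format: 96-well plates, 48-hour exposure. The concentration for 50% growth inhibition is given as GI50.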 The source made the active and inactive calls. Rule as the data show it: active = GI50 up to about 1.1 µM and inactive = higher.
# How the values were obtained:
# Assay in all cases: NCI-60 cell line screen, 48 h
# [1] = system: CAKI-1
# [2] = system: LOX IMVI
# [3] = system: MOLT-4
# [4] = system: UO-31
# [5] = system: HCC 2998
# [6] = system: HT-29
# [7] = system: OVCAR-5
# [8] = system: HCT-15
# [9] = system: DU-145
# [10] = system: OVCAR-4
# [11] = system: COLO 205
# [12] = system: SF-539
# [13] = system: SK-MEL-28
# [14] = system: UACC-257
# [15] = system: NCI/ADR-RES
# [16] = system: T47D
# [17] = system: SK-MEL-2
# [18] = system: MCF7
# [19] = system: SN12C
# [20] = system: RPMI-8226
Structure (SMILES),GI50 [1],GI50 [2],GI50 [3],GI50 [4],GI50 [5],GI50 [6],GI50 [7],GI50 [8] [µM],GI50 [9],GI50 [10],GI50 [11],GI50 [12],GI50 [13],GI50 [14],GI50 [15],GI50 [16],GI50 [17],GI50 [18],GI50 [19],GI50 [20]
Cc1cc(N(CCC#N)CCC#N)ccc1/C=C1N=C(/C=C\c2ccccc2)N(c2ccc(Cl)cc2)C\1=O,> 24.3 µM (inactive),1.01 µM (active),25 µM (inactive),7.36 µM (inactive),1.81 µM (inactive),2.11 µM (inactive),22.2 µM (inactive),0.718,> 100 µM (inactive),> 39.4 µM (inactive),0.745 µM (active),6.71 µM (inactive),5.46 µM (inactive),> 54.6 µM (inactive),> 100 µM (inactive),> 100 µM (inactive),> 54.8 µM (inactive),29.2 µM (inactive),> 45 µM (inactive),–
CSc1nc2ccccc2c(=O)n1/N=C1\C(=O)N(CN2CCCCC2)c2ccc(Cl)cc21,23.3 µM (inactive),14.2 µM (inactive),12.4 µM (inactive),45.8 µM (inactive),–,36.7 µM (inactive),64.6 µM (inactive),13.3,17.3 µM (inactive),30.2 µM (inactive),17.9 µM (inactive),37.6 µM (inactive),60.5 µM (inactive),20.4 µM (inactive),34.8 µM (inactive),13.3 µM (inactive),19.5 µM (inactive),18.7 µM (inactive),28.7 µM (inactive),–
O=C1/C(=N\n2c(S)nnc2-c2ccncc2)c2cc(Cl)ccc2N1CN1CCCCC1,33.7 µM (inactive),17.5 µM (inactive),12.3 µM (inactive),56.5 µM (inactive),–,31.2 µM (inactive),> 100 µM (inactive),25.4,29.6 µM (inactive),32.2 µM (inactive),41 µM (inactive),35 µM (inactive),65.3 µM (inactive),23.4 µM (inactive),57.5 µM (inactive),23.1 µM (inactive),20.9 µM (inactive),31.2 µM (inactive),55.8 µM (inactive),–
O=[N+]([O-])C(C(Cl)=C(Cl)Cl)=C(N(Cc1ccccc1)Cc1ccccc1)N(Cc1ccccc1)Cc1ccccc1,> 100 µM (inactive),32.4 µM (inactive),> 100 µM (inactive),45.8 µM (inactive),24 µM (inactive),33 µM (inactive),30.2 µM (inactive),> 100,> 100 µM (inactive),–,57 µM (inactive),30.3 µM (inactive),> 100 µM (inactive),> 100 µM (inactive),> 100 µM (inactive),> 100 µM (inactive),36.4 µM (inactive),> 100 µM (inactive),29.3 µM (inactive),–
CNC(=O)OCC1=C(COC(=O)NC)C(C)N(c2ccc(OC)cc2)C1 (centres undefined),–,> 100 µM (inactive),33.6 µM (inactive),41.6 µM (inactive),–,64.9 µM (inactive),24.1 µM (inactive),> 100,> 100 µM (inactive),54.6 µM (inactive),59 µM (inactive),59.8 µM (inactive),> 100 µM (inactive),36.7 µM (inactive),60.4 µM (inactive),37.1 µM (inactive),> 100 µM (inactive),50.6 µM (inactive),> 100 µM (inactive),58.6 µM (inactive)
COc1ccc(C(=O)/C=C/c2ccc(OCC(=N)N)cc2)cc1,> 10 µM (inactive),–,3.58 µM (inactive),19.8 µM (inactive),16.6 µM (inactive),15.3 µM (inactive),31.7 µM (inactive),17.2,12.8 µM (inactive),14.7 µM (inactive),14.2 µM (inactive),15.8 µM (inactive),15.3 µM (inactive),18.5 µM (inactive),28.2 µM (inactive),10.7 µM (inactive),–,13.2 µM (inactive),13.5 µM (inactive),–
N#CCCN(CCC#N)c1ccc(/C=C2\N=C(c3ccccc3)N(c3ccc(C(=O)O)cc3)C2=O)cc1,–,30.9 µM (inactive),0.641 µM (active),77.1 µM (inactive),–,95.1 µM (inactive),> 100 µM (inactive),40.8,69.2 µM (inactive),14.4 µM (inactive),39 µM (inactive),24.4 µM (inactive),36 µM (inactive),37.2 µM (inactive),> 100 µM (inactive),40.7 µM (inactive),52.5 µM (inactive),37.6 µM (inactive),70.1 µM (inactive),46.8 µM (inactive)
O=c1c2ccccc2nc2n1C(c1ccc([N+](=O)[O-])cc1)C2(c1ccccc1)c1ccccc1 (centres undefined),> 100 µM (inactive),> 100 µM (inactive),5.46 µM (inactive),–,–,9.98 µM (inactive),> 100 µM (inactive),> 100,> 100 µM (inactive),> 100 µM (inactive),8.3 µM (inactive),> 100 µM (inactive),> 100 µM (inactive),> 100 µM (inactive),> 100 µM (inactive),> 100 µM (inactive),> 100 µM (inactive),54.6 µM (inactive),> 100 µM (inactive),8.2 µM (inactive)
CN(C)c1ccc(/C=C2\C[C@H]3[C@@H]4CCC5=CC(=O)CC[C@]5(C)[C@H]4CC[C@]3(C)C2=O)cc1,> 100 µM (inactive),20.8 µM (inactive),14.8 µM (inactive),63.2 µM (inactive),–,23.9 µM (inactive),> 100 µM (inactive),34.4,76.6 µM (inactive),59.7 µM (inactive),21.7 µM (inactive),28.7 µM (inactive),> 100 µM (inactive),19 µM (inactive),38.3 µM (inactive),17.4 µM (inactive),50.9 µM (inactive),21.8 µM (inactive),44.3 µM (inactive),17.5 µM (inactive)
O=C(O)c1cccc2cccc(-c3cccc4cccc(C(=O)O)c34)c12,> 100 µM (inactive),> 100 µM (inactive),–,> 100 µM (inactive),> 100 µM (inactive),> 100 µM (inactive),> 100 µM (inactive),> 100,> 100 µM (inactive),> 100 µM (inactive),> 100 µM (inactive),> 100 µM (inactive),> 100 µM (inactive),> 100 µM (inactive),> 100 µM (inactive),> 100 µM (inactive),> 100 µM (inactive),> 100 µM (inactive),> 100 µM (inactive),–
C=CC(Br)(CBr)CCC(Br)C(C)C (centres undefined),6.58 µM (inactive),1.53 µM (inactive),1.91 µM (inactive),13 µM (inactive),–,2.79 µM (inactive),15.6 µM (inactive),4.66,8.55 µM (inactive),4.9 µM (inactive),5.93 µM (inactive),2.66 µM (inactive),3.49 µM (inactive),8.18 µM (inactive),7.85 µM (inactive),0.333 µM (active),2.96 µM (inactive),1.82 µM (inactive),10.7 µM (inactive),1.25 µM (inactive)
CC(C)(C)OC(=O)N1CCC2(C)CC(=O)CC=C12 (centres undefined),> 100 µM (inactive),> 100 µM (inactive),> 100 µM (inactive),> 100 µM (inactive),> 100 µM (inactive),> 100 µM (inactive),> 100 µM (inactive),> 100,> 100 µM (inactive),> 100 µM (inactive),> 100 µM (inactive),> 100 µM (inactive),> 100 µM (inactive),28.2 µM (inactive),> 100 µM (inactive),> 100 µM (inactive),> 100 µM (inactive),> 100 µM (inactive),> 100 µM (inactive),–
Clc1ccccc1CN1COc2c(cc(Cl)c3cccnc23)C1,4.49 µM (inactive),–,0.28 µM (active),2.89 µM (inactive),–,19.2 µM (inactive),4.28 µM (inactive),0.165,7.19 µM (inactive),3.97 µM (inactive),19 µM (inactive),2.69 µM (inactive),6.27 µM (inactive),3.43 µM (inactive),0.224 µM (active),6.05 µM (inactive),6.19 µM (inactive),4.94 µM (inactive),0.0249 µM (active),–
CC(=O)Nc1cc(CN2CCCCC2)c(O)c2ncccc12,16.6 µM (inactive),20.2 µM (inactive),10.1 µM (inactive),7.35 µM (inactive),–,44.5 µM (inactive),34.8 µM (inactive),6.01,6.75 µM (inactive),35.2 µM (inactive),49.7 µM (inactive),58.5 µM (inactive),27.3 µM (inactive),24.7 µM (inactive),16.2 µM (inactive),11.8 µM (inactive),4.13 µM (inactive),24.7 µM (inactive),26 µM (inactive),12.1 µM (inactive)
C[C@H]1O[C@@H](O[C@H]2[C@@H](O)C[C@H](O[C@H]3[C@@H](O)C[C@H](O[C@H]4CC[C@@]5(C)[C@H](CC[C@@H]6[C@@H]5CC[C@]5(C)[C@@H](C7=CC(=O)OC7)[C@@H](O)C[C@]65O)C4)O[C@@H]3C)O[C@@H]2C)C[C@H](O)[C@@H]1O [GITOXIN],0.107 µM (active),0.215 µM (active),0.0277 µM (active),0.219 µM (active),4.19 µM (inactive),0.177 µM (active),0.656 µM (active),0.593,0.0822 µM (active),0.271 µM (active),0.798 µM (active),0.1 µM (active),1.15 µM (inactive),0.522 µM (active),0.197 µM (active),0.42 µM (active),0.543 µM (active),–,0.164 µM (active),0.197 µM (active)

# Source: ChEMBL document CHEMBL1201862, “PubChem BioAssay data set” (2004)
